Source: PubChem BioAssay AID1963985 (Molecular Pharmacology Branch, DTP, NCI, 2024)
Each block holds one compound with its values, some of them ahead of it.

Test system: 252836-082-R-J2-PDC tumor spheroids, viability
Assay: Anticancer human tumor 252836-082-R-J2-PDC patient-derived head and neck squamous cell carcinoma cell line growth inhibition [PI3K]
Conditions: spheroids with HUVEC and MSC; for IC50: curve of first compound; for viability, T/C: stronger effect = lower value
Summary of the method: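 Agents were dosed from a top concentration near clinical Cmax (otherwise 10 microM) in half-log decrements, alone or combined with PI3K inhibitors. The spheroids contain tumor cells plus endothelial (HUVEC) and MSC stroma; viability is measured.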

[1] = second compound 0.0316 µM, first compound 0.0316 µM
[2] = second compound 0.0316 µM, first compound 0.1 µM
[3] = second compound 0.0316 µM, first compound 0.316 µM
[4] = second compound 0.0316 µM, first compound 1 µM
[5] = second compound 0.0316 µM, first compound 3.16 µM
[6] = second compound 0.0316 µM, first compound 10 µM
[7] = second compound 0.1 µM, first compound 0.0316 µM
[8] = second compound 0.1 µM, first compound 0.1 µM
[9] = second compound 0.1 µM, first compound 0.316 µM
[10] = second compound 0.1 µM, first compound 1 µM
[11] = second compound 0.1 µM, first compound 3.16 µM
[12] = second compound 0.1 µM, first compound 10 µM
[13] = second compound 0.316 µM, first compound 0.0316 µM
[14] = second compound 0.316 µM, first compound 0.1 µM
[15] = second compound 0.316 µM, first compound 0.316 µM
[16] = second compound 0.316 µM, first compound 1 µM
[17] = second compound 0.316 µM, first compound 3.16 µM
[18] = second compound 0.316 µM, first compound 10 µM
[19] = second compound 1 µM, first compound 0.0316 µM
[20] = second compound 1 µM, first compound 0.1 µM
[21] = second compound 1 µM, first compound 0.316 µM
[22] = second compound 1 µM, first compound 1 µM
[23] = second compound 1 µM, first compound 3.16 µM
[24] = second compound 1 µM, first compound 10 µM
[25] = second compound 3.16 µM, first compound 0.0316 µM
[26] = second compound 3.16 µM, first compound 0.1 µM
[27] = second compound 3.16 µM, first compound 0.316 µM
[28] = second compound 3.16 µM, first compound 1 µM
[29] = second compound 3.16 µM, first compound 3.16 µM
[30] = second compound 3.16 µM, first compound 10 µM
[31] = second compound 10 µM, first compound 0.0316 µM
[32] = second compound 10 µM, first compound 0.1 µM
[33] = second compound 10 µM, first compound 0.316 µM
[34] = second compound 10 µM, first compound 1 µM
[35] = second compound 10 µM, first compound 3.16 µM
[36] = second compound 10 µM, first compound 10 µM
[37] = second compound 0.0316 µM, first compound 0.00316 µM
[38] = second compound 0.0316 µM, first compound 0.01 µM
[39] = second compound 0.1 µM, first compound 0.00316 µM
[40] = second compound 0.1 µM, first compound 0.01 µM
[41] = second compound 0.316 µM, first compound 0.00316 µM
[42] = second compound 0.316 µM, first compound 0.01 µM
[43] = second compound 1 µM, first compound 0.00316 µM
[44] = second compound 1 µM, first compound 0.01 µM
[45] = second compound 3.16 µM, first compound 0.00316 µM
[46] = second compound 3.16 µM, first compound 0.01 µM
[47] = second compound 10 µM, first compound 0.00316 µM
[48] = second compound 10 µM, first compound 0.01 µM
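Note: spheroids exposed to agents for seven days before readout.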
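Throughout, for viability, T/C: percent of vehicle DMSO control viability so 100% = untreated growth.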

- IC50 (second compound 0.0316 µM): 1150 nM
- IC50 (second compound 0.1 µM): 1100 nM
- IC50 (second compound 0.316 µM): 991 nM
- IC50 (second compound 1 µM): 980 nM
- IC50 (second compound 3.16 µM): 916 nM
- IC50 (second compound 10 µM): 742 nM
SMILES: CC(C)NCC(C(=O)N1CCN(c2ncnc3c2C(C)CC3O)CC1)c1ccc(Cl)cc1 (stereo not drawn) + CC(Nc1ncnc2nc[nH]c12)c1cc2cccc(Cl)c2c(=O)n1-c1ccccc1
- viability, T/C [1]: 99.4%
- viability, T/C [2]: 89.4%
- viability, T/C [3]: 76.7%
- viability, T/C [4]: 54.5%
- viability, T/C [5]: 28.6%
- viability, T/C [6]: 22.1%
- viability, T/C [7]: 97.9%
- viability, T/C [8]: 81.1%
- viability, T/C [9]: 77.4%
- viability, T/C [10]: 49%
- viability, T/C [11]: 33.2%
- viability, T/C [12]: 21.7%
- viability, T/C [13]: 83.3%
- viability, T/C [14]: 83.1%
- viability, T/C [15]: 85%
- viability, T/C [16]: 48.3%
- viability, T/C [17]: 38.1%
- viability, T/C [18]: 20.7%
- viability, T/C [19]: 95.4%
- viability, T/C [20]: 98.1%
- viability, T/C [21]: 65.3%
- viability, T/C [22]: 51.5%
- viability, T/C [23]: 33.6%
- viability, T/C [24]: 20.5%
- viability, T/C [25]: 75.7%
- viability, T/C [26]: 74.9%
- viability, T/C [27]: 75%
- viability, T/C [28]: 46.5%
- viability, T/C [29]: 35.4%
- viability, T/C [30]: 24.2%
- viability, T/C [31]: 71.3%
- viability, T/C [32]: 69.2%
- viability, T/C [33]: 59.6%
- viability, T/C [34]: 46.3%
- viability, T/C [35]: 30.4%
- viability, T/C [36]: 16.6%

- IC50 (second compound 0.0316 µM): > 1000 nM
- IC50 (second compound 0.1 µM): > 1000 nM
- IC50 (second compound 0.316 µM): > 1000 nM
- IC50 (second compound 1 µM): > 1000 nM
- IC50 (second compound 3.16 µM): > 1000 nM
- IC50 (second compound 10 µM): > 1000 nM
SMILES: CCN1CCN(Cc2ccc(Nc3ncc(F)c(-c4cc(F)c5nc(C)n(C(C)C)c5c4)n3)nc2)CC1 + CC(Nc1ncnc2nc[nH]c12)c1cc2cccc(Cl)c2c(=O)n1-c1ccccc1
- viability, T/C [37]: 98.7%
- viability, T/C [38]: 94.4%
- viability, T/C [1]: 96.9%
- viability, T/C [2]: 99%
- viability, T/C [3]: 89.8%
- viability, T/C [4]: 84.6%
- viability, T/C [39]: 99.2%
- viability, T/C [40]: 93.1%
- viability, T/C [7]: 103%
- viability, T/C [8]: 108%
- viability, T/C [9]: 95%
- viability, T/C [10]: 99.6%
- viability, T/C [41]: 103%
- viability, T/C [42]: 94.3%
- viability, T/C [13]: 95.7%
- viability, T/C [14]: 96.3%
- viability, T/C [15]: 96.6%
- viability, T/C [16]: 96.2%
- viability, T/C [43]: 92.8%
- viability, T/C [44]: 93.6%
- viability, T/C [19]: 91.9%
- viability, T/C [20]: 90.6%
- viability, T/C [21]: 89.2%
- viability, T/C [22]: 91.6%
- viability, T/C [45]: 80%
- viability, T/C [46]: 69.8%
- viability, T/C [25]: 75.4%
- viability, T/C [26]: 79%
- viability, T/C [27]: 78.9%
- viability, T/C [28]: 75%
- viability, T/C [47]: 56%
- viability, T/C [48]: 62.8%
- viability, T/C [31]: 65%
- viability, T/C [32]: 67.4%
- viability, T/C [33]: 69.8%
- viability, T/C [34]: 53.6%

- IC50 (second compound 0.0316 µM): > 10000 nM
- IC50 (second compound 0.1 µM): > 10000 nM
- IC50 (second compound 0.316 µM): > 10000 nM
- IC50 (second compound 1 µM): > 10000 nM
- IC50 (second compound 3.16 µM): > 10000 nM
- IC50 (second compound 10 µM): > 10000 nM
SMILES: C[C@@H](NC(=O)c1ncnc(N)c1Cl)c1ncc(C(=O)Nc2cc(C(F)(F)F)c(Cl)cn2)s1 + CC(Nc1ncnc2nc[nH]c12)c1cc2cccc(Cl)c2c(=O)n1-c1ccccc1
- viability, T/C [1]: 109%
- viability, T/C [2]: 97.1%
- viability, T/C [3]: 100%
- viability, T/C [4]: 105%
- viability, T/C [5]: 103%
- viability, T/C [6]: 74%
- viability, T/C [7]: 96.3%
- viability, T/C [8]: 94.7%
- viability, T/C [9]: 86.7%
- viability, T/C [10]: 92.1%
- viability, T/C [11]: 94.5%
- viability, T/C [12]: 82.3%
- viability, T/C [13]: 90.1%
- viability, T/C [14]: 89.7%
- viability, T/C [15]: 98.5%
- viability, T/C [16]: 99.4%
- viability, T/C [17]: 94.3%
- viability, T/C [18]: 86.5%
- viability, T/C [19]: 96.8%
- viability, T/C [20]: 89.9%
- viability, T/C [21]: 90.7%
- viability, T/C [22]: 92.7%
- viability, T/C [23]: 97.8%
- viability, T/C [24]: 88.6%
- viability, T/C [25]: 73.5%
- viability, T/C [26]: 84.5%
- viability, T/C [27]: 89.5%
- viability, T/C [28]: 93.1%
- viability, T/C [29]: 72.7%
- viability, T/C [30]: 70.1%
- viability, T/C [31]: 70.8%
- viability, T/C [32]: 69%
- viability, T/C [33]: 55.5%
- viability, T/C [34]: 64.5%
- viability, T/C [35]: 72.1%
- viability, T/C [36]: 65.4%

- IC50 (second compound 0.0316 µM): > 100 nM
- IC50 (second compound 0.1 µM): > 100 nM
- IC50 (second compound 0.316 µM): > 100 nM
- IC50 (second compound 1 µM): > 100 nM
- IC50 (second compound 3.16 µM): 90.3 nM
- IC50 (second compound 10 µM): 23.1 nM
SMILES: Cn1ncnc1[C@H]1c2n[nH]c(=O)c3cc(F)cc(c23)N[C@@H]1c1ccc(F)cc1 + CC(Nc1ncnc2nc[nH]c12)c1cc2cccc(Cl)c2c(=O)n1-c1ccccc1
- viability, T/C (second compound 0.0316 µM, first compound 0.000316 µM): 95.5%
- viability, T/C (second compound 0.0316 µM, first compound 0.001 µM): 79.7%
- viability, T/C [37]: 94%
- viability, T/C [38]: 94.4%
- viability, T/C [1]: 79.6%
- viability, T/C [2]: 58.8%
- viability, T/C (second compound 0.1 µM, first compound 0.000316 µM): 94.3%
- viability, T/C (second compound 0.1 µM, first compound 0.001 µM): 82.6%
- viability, T/C [39]: 79.3%
- viability, T/C [40]: 87.6%
- viability, T/C [7]: 79.1%
- viability, T/C [8]: 51.9%
- viability, T/C (second compound 0.316 µM, first compound 0.000316 µM): 97.5%
- viability, T/C (second compound 0.316 µM, first compound 0.001 µM): 84%
- viability, T/C [41]: 79.5%
- viability, T/C [42]: 80%
- viability, T/C [13]: 76.9%
- viability, T/C [14]: 57.8%
- viability, T/C (second compound 1 µM, first compound 0.000316 µM): 84.8%
- viability, T/C (second compound 1 µM, first compound 0.001 µM): 97.9%
- viability, T/C [43]: 77.4%
- viability, T/C [44]: 81.5%
- viability, T/C [19]: 68.3%
- viability, T/C [20]: 57.9%
- viability, T/C (second compound 3.16 µM, first compound 0.000316 µM): 71.5%
- viability, T/C (second compound 3.16 µM, first compound 0.001 µM): 85.4%
- viability, T/C [45]: 82.8%
- viability, T/C [46]: 64.3%
- viability, T/C [25]: 64.7%
- viability, T/C [26]: 48.2%
- viability, T/C (second compound 10 µM, first compound 0.000316 µM): 55.1%
- viability, T/C (second compound 10 µM, first compound 0.001 µM): 59.4%
- viability, T/C [47]: 58.8%
- viability, T/C [48]: 63.4%
- viability, T/C [31]: 46.5%
- viability, T/C [32]: 31.2%
